Data as given in PubChem BioAssay (NCI).
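Test compounds were applied to cells in 96-well plates for 48 hours at 5 doses. GI50 marks 50% less growth. At the TGI there is no net growth.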

What was measured:
Assay in all cases: NCI anticancer screen, dose series, 48 h
786-0 renal = system: 786-0 renal
A498 renal = system: A498 renal
A549 NSCLC = system: A549 NSCLC
ACHN renal = system: ACHN renal
BT-549 breast = system: BT-549 breast
CAKI-1 renal = system: CAKI-1 renal
CCRF-CEM leukemia = system: CCRF-CEM leukemia
COLO 205 colon = system: COLO 205 colon
DU-145 prostate = system: DU-145 prostate
EKVX NSCLC = system: EKVX NSCLC
HCC-2998 colon = system: HCC-2998 colon
HCT-116 colon = system: HCT-116 colon
HCT-15 colon = system: HCT-15 colon
HL-60(TB) leukemia = system: HL-60(TB) leukemia
HOP-62 NSCLC = system: HOP-62 NSCLC
HOP-92 NSCLC = system: HOP-92 NSCLC
HS 578T breast = system: HS 578T breast
HT29 colon = system: HT29 colon
IGROV1 ovarian = system: IGROV1 ovarian
K-562 leukemia = system: K-562 leukemia
KM12 colon = system: KM12 colon
LOX IMVI melanoma = system: LOX IMVI melanoma
M14 melanoma = system: M14 melanoma
MALME-3M melanoma = system: MALME-3M melanoma
MCF7 breast = system: MCF7 breast
MDA-MB-231 breast = system: MDA-MB-231 breast
MDA-MB-435 = system: MDA-MB-435
MOLT-4 leukemia = system: MOLT-4 leukemia
NCI-H226 lung = system: NCI-H226 lung
NCI-H23 lung = system: NCI-H23 lung
NCI-H460 lung = system: NCI-H460 lung
NCI-H522 lung = system: NCI-H522 lung
NCI/ADR-RES ovarian = system: NCI/ADR-RES ovarian
OVCAR-3 ovarian = system: OVCAR-3 ovarian
OVCAR-4 ovarian = system: OVCAR-4 ovarian
OVCAR-5 ovarian = system: OVCAR-5 ovarian
OVCAR-8 ovarian = system: OVCAR-8 ovarian
PC-3 prostate = system: PC-3 prostate
RPMI-8226 leukemia = system: RPMI-8226 leukemia
RXF 393 renal = system: RXF 393 renal
SF-268 CNS = system: SF-268 CNS
SF-295 CNS = system: SF-295 CNS
SF-539 CNS = system: SF-539 CNS
SK-MEL-2 melanoma = system: SK-MEL-2 melanoma
SK-MEL-28 melanoma = system: SK-MEL-28 melanoma
SK-MEL-5 melanoma = system: SK-MEL-5 melanoma
SK-OV-3 ovarian = system: SK-OV-3 ovarian
SN12C renal = system: SN12C renal
SNB-19 CNS = system: SNB-19 CNS
SNB-75 CNS = system: SNB-75 CNS
SR leukemia = system: SR leukemia
SW-620 colon = system: SW-620 colon
T-47D breast = system: T-47D breast
TK-10 renal = system: TK-10 renal
U251 CNS = system: U251 CNS
UACC-257 melanoma = system: UACC-257 melanoma
UACC-62 melanoma = system: UACC-62 melanoma
UO-31 renal = system: UO-31 renal

FC(F)(F)CNc1nccc(-c2cnn3ncccc23)n1
GI50 (786-0 renal): 9.67 µM
TGI (786-0 renal): > 25 µM
GI50 (A498 renal): 3.85 µM
TGI (A498 renal): > 22.6 µM
GI50 (A549 NSCLC): 10.3 µM
TGI (A549 NSCLC): > 25 µM
GI50 (ACHN renal): 6.41 µM
TGI (ACHN renal): > 25 µM
GI50 (BT-549 breast): > 14.1 µM
TGI (BT-549 breast): > 25 µM
GI50 (CAKI-1 renal): 15.9 µM
TGI (CAKI-1 renal): > 25 µM
GI50 (CCRF-CEM leukemia): > 18.9 µM
TGI (CCRF-CEM leukemia): > 25 µM
GI50 (COLO 205 colon): 8.58 µM
TGI (COLO 205 colon): > 25 µM
GI50 (DU-145 prostate): 12 µM
TGI (DU-145 prostate): > 25 µM
GI50 (EKVX NSCLC): 15.1 µM
TGI (EKVX NSCLC): > 25 µM
GI50 (HCC-2998 colon): > 25 µM
TGI (HCC-2998 colon): > 25 µM
GI50 (HCT-116 colon): 8.3 µM
TGI (HCT-116 colon): > 25 µM
GI50 (HCT-15 colon): 16.1 µM
TGI (HCT-15 colon): > 25 µM
GI50 (HL-60(TB) leukemia): 8.35 µM
TGI (HL-60(TB) leukemia): > 19.9 µM
GI50 (HOP-62 NSCLC): > 13.6 µM
TGI (HOP-62 NSCLC): > 25 µM
GI50 (HOP-92 NSCLC): 6.13 µM
TGI (HOP-92 NSCLC): > 25 µM
GI50 (HS 578T breast): 8.14 µM
TGI (HS 578T breast): > 25 µM
GI50 (HT29 colon): 16.3 µM
TGI (HT29 colon): > 25 µM
GI50 (IGROV1 ovarian): 11.9 µM
TGI (IGROV1 ovarian): > 25 µM
GI50 (K-562 leukemia): > 25 µM
TGI (K-562 leukemia): > 25 µM
GI50 (KM12 colon): 9.54 µM
TGI (KM12 colon): > 25 µM
GI50 (LOX IMVI melanoma): 10.7 µM
TGI (LOX IMVI melanoma): > 25 µM
GI50 (M14 melanoma): 11.5 µM
TGI (M14 melanoma): > 25 µM
GI50 (MALME-3M melanoma): > 25 µM
TGI (MALME-3M melanoma): > 25 µM
GI50 (MCF7 breast): 7.3 µM
TGI (MCF7 breast): > 25 µM
GI50 (MDA-MB-231 breast): > 25 µM
TGI (MDA-MB-231 breast): > 25 µM
GI50 (MDA-MB-435): 13.7 µM
TGI (MDA-MB-435): > 25 µM
GI50 (MOLT-4 leukemia): > 25 µM
TGI (MOLT-4 leukemia): > 25 µM
GI50 (NCI-H226 lung): 12.6 µM
TGI (NCI-H226 lung): > 25 µM
GI50 (NCI-H23 lung): 9.54 µM
TGI (NCI-H23 lung): > 25 µM
GI50 (NCI-H460 lung): 10.2 µM
TGI (NCI-H460 lung): > 25 µM
GI50 (NCI-H522 lung): 9.91 µM
TGI (NCI-H522 lung): > 25 µM
GI50 (NCI/ADR-RES ovarian): 13.6 µM
TGI (NCI/ADR-RES ovarian): > 25 µM
GI50 (OVCAR-3 ovarian): 10.5 µM
TGI (OVCAR-3 ovarian): > 25 µM
GI50 (OVCAR-4 ovarian): > 25 µM
TGI (OVCAR-4 ovarian): > 25 µM
GI50 (OVCAR-5 ovarian): 9.68 µM
TGI (OVCAR-5 ovarian): > 25 µM
GI50 (OVCAR-8 ovarian): 8.58 µM
TGI (OVCAR-8 ovarian): > 25 µM
GI50 (PC-3 prostate): 24.5 µM
TGI (PC-3 prostate): > 25 µM
GI50 (RPMI-8226 leukemia): > 17.5 µM
TGI (RPMI-8226 leukemia): > 25 µM
GI50 (RXF 393 renal): 4.86 µM
TGI (RXF 393 renal): 12.4 µM
GI50 (SF-268 CNS): 8.24 µM
TGI (SF-268 CNS): > 25 µM
GI50 (SF-295 CNS): 11.9 µM
TGI (SF-295 CNS): > 25 µM
GI50 (SF-539 CNS): 7.76 µM
TGI (SF-539 CNS): > 25 µM
GI50 (SK-MEL-2 melanoma): 8.72 µM
TGI (SK-MEL-2 melanoma): > 25 µM
GI50 (SK-MEL-28 melanoma): 8.13 µM
TGI (SK-MEL-28 melanoma): > 25 µM
GI50 (SK-MEL-5 melanoma): 10.5 µM
TGI (SK-MEL-5 melanoma): > 25 µM
GI50 (SK-OV-3 ovarian): > 25 µM
TGI (SK-OV-3 ovarian): > 25 µM
GI50 (SN12C renal): 14.5 µM
TGI (SN12C renal): > 25 µM
GI50 (SNB-19 CNS): 12.7 µM
TGI (SNB-19 CNS): > 25 µM
GI50 (SNB-75 CNS): 11.3 µM
TGI (SNB-75 CNS): > 25 µM
GI50 (SR leukemia): 6.88 µM
TGI (SR leukemia): > 25 µM
GI50 (SW-620 colon): 10.9 µM
TGI (SW-620 colon): > 25 µM
GI50 (T-47D breast): 8.93 µM
TGI (T-47D breast): > 25 µM
GI50 (TK-10 renal): 10.3 µM
TGI (TK-10 renal): > 25 µM
GI50 (U251 CNS): 9.82 µM
TGI (U251 CNS): > 25 µM
GI50 (UACC-257 melanoma): > 19.2 µM
TGI (UACC-257 melanoma): > 25 µM
GI50 (UACC-62 melanoma): 10.9 µM
TGI (UACC-62 melanoma): > 25 µM
GI50 (UO-31 renal): 15.3 µM
TGI (UO-31 renal): > 25 µM
